Test results from patent US20260262643A1, “HERBICIDAL BENZOXAZINES” (FMC CORPORATION, priority 2022, published 2026).

Columns and labels:
[1] = system: barnyardgrass; assay: Test C preemergence; type: in vivo, Echinochloa crusgalli
Summary of the method: (§1)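 Soil-applied (pre) and foliar (post, 1–2 leaf, 2–10 cm) sprays; surfactant-containing non-phytotoxic solvent vehicle; loam/sand substrate. Readout: visual % control at 10 d, greenhouse, versus untreated.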

[2] = system: blackgrass; assay: Test C preemergence; type: in vivo, Alopecurus myosuroides
Summary of the method: as §1

[3] = system: corn; assay: Test C preemergence; type: in vivo, Zea mays
Summary of the method: as §1

[4] = system: foxtail, giant; assay: Test C preemergence; type: in vivo, Setaria faberi
From the text: (§2) Seeds of plant species selected from barnyardgrass (Echinochloa crusgalli), blackgrass (Alopecurus myosuroides), corn (Zea mays), foxtail, giant (giant foxtail, Setaria faberi), green foxtail (Setaria viridis), goosegrass (Eleusine indica), kochia (Bassia scoparia), oat, wild (wild oat, Avena fatua), pigweed, palmer (palmer amaranth, palmer pigweed, Amaranthus palmeri), Pigweed, Redroot (redroot pigweed, Amaranthus retroflexus), ragweed (common ragweed, Ambrosia artemisiifolia), ryegrass, Italian ([…] ryegrass, Lolium multiflorum), soybean (Glycine max), and wheat (Triticum aestivum) were planted into a blend of loam soil and sand and treated preemergence with a directed soil spray using test chemicals formulated in a non-phytotoxic solvent mixture which included a surfactant. At the same time, plants selected from these crops and weed species and also galium (catchweed bedstraw, Galium aparine) and horseweed (Erigeron canadensis) were planted in pots containing the same blend of loam soil and sand and treated with postemergence applications of test chemicals formulated in the same manner. Plants ranged in height from 2 to 10 cm and were in the one- to two-leaf stage for the postemergence treatment. Treated plants and untreated controls were maintained in a greenhouse for 10 days, after which time all treated plants were compared to untreated controls and visually evaluated for injury. Plant response ratings, summarized in Table C, are based on a 0 to 100 scale where 0 is no effect and 100 is complete control. A dash (-) response means no test result.

[5] = system: kochia; assay: Test C preemergence; type: in vivo, Bassia scoparia
Summary of the method: as §1

[6] = system: oat, wild; assay: Test C preemergence; type: in vivo, Avena fatua
Summary of the method: as §1

[7] = system: pigweed, palmer; assay: Test C preemergence; type: in vivo, Amaranthus palmeri
Summary of the method: as §1

[8] = system: ragweed; assay: Test C preemergence; type: in vivo, Ambrosia artemisiifolia
Summary of the method: as §1

[9] = system: ryegrass, Italian; assay: Test C preemergence; type: in vivo, Lolium multiflorum
Summary of the method: as §1

[10] = system: soybean; assay: Test C preemergence; type: in vivo, Glycine max
Summary of the method: as §1

[11] = system: wheat; assay: Test C preemergence; type: in vivo, Triticum aestivum
Summary of the method: as §1

[12] = system: barnyardgrass; assay: Test C postemergence; type: in vivo, Echinochloa crusgalli; conditions: 10 days, 0 to 100 scale (0 no effect, 100 complete control)
Summary of the method: as §1

[13] = system: blackgrass; assay: Test C postemergence; type: in vivo, Alopecurus myosuroides; conditions: 10 days, 0 to 100 scale (0 no effect, 100 complete control)
Summary of the method: as §1

[14] = system: corn; assay: Test C postemergence; type: in vivo, Zea mays; conditions: 10 days, 0 to 100 scale (0 no effect, 100 complete control)
Summary of the method: as §1

[15] = system: foxtail, giant; assay: Test C postemergence; type: in vivo, Setaria faberi; conditions: 10 days, 0 to 100 scale (0 no effect, 100 complete control)
From the text: as §2

[16] = system: kochia; assay: Test C postemergence; type: in vivo, Bassia scoparia; conditions: 10 days, 0 to 100 scale (0 no effect, 100 complete control)
Summary of the method: as §1

[17] = system: oat, wild; assay: Test C postemergence; type: in vivo, Avena fatua; conditions: 10 days, 0 to 100 scale (0 no effect, 100 complete control)
Summary of the method: as §1

[18] = system: pigweed, palmer; assay: Test C postemergence; type: in vivo, Amaranthus palmeri; conditions: 10 days, 0 to 100 scale (0 no effect, 100 complete control)
Summary of the method: as §1

[19] = system: ragweed; assay: Test C postemergence; type: in vivo, Ambrosia artemisiifolia; conditions: 10 days, 0 to 100 scale (0 no effect, 100 complete control)
Summary of the method: as §1

[20] = system: ryegrass, Italian; assay: Test C postemergence; type: in vivo, Lolium multiflorum; conditions: 10 days, 0 to 100 scale (0 no effect, 100 complete control)
Summary of the method: as §1

[21] = system: soybean; assay: Test C postemergence; type: in vivo, Glycine max; conditions: 10 days, 0 to 100 scale (0 no effect, 100 complete control)
Summary of the method: as §1

[22] = system: wheat; assay: Test C postemergence; type: in vivo, Triticum aestivum; conditions: 10 days, 0 to 100 scale (0 no effect, 100 complete control)
Summary of the method: as §1

[23] = system: galium; assay: Test C postemergence; type: in vivo, Galium aparine; conditions: 10 days, 0 to 100 scale (0 no effect, 100 complete control)
Summary of the method: as §1

[24] = system: horseweed; assay: Test C postemergence; type: in vivo, Erigeron canadensis; conditions: 10 days, 0 to 100 scale (0 no effect, 100 complete control)
Summary of the method: as §1

[25] = system: barnyardgrass; assay: Test D flooded paddy test; type: in vivo, Echinochloa crus-galli; conditions: 250 g ai/ha, applied to paddy water, visual rating after 13 to 14 days, scale 0 to 100 (0 no effect, 100 complete control)
Summary of the method: (§3)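 Seedlings reached the 2-leaf stage, then pots were flooded to 3 cm over the soil surface. Compound was applied into the water, depth was maintained, and plants stayed in the greenhouse 13 to 14 days before visual scoring (0–100) relative to controls.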

[26] = system: ducksalad; assay: Test D flooded paddy test; type: in vivo, Heteranthera limosa; conditions: 250 g ai/ha, applied to paddy water, visual rating after 13 to 14 days, scale 0 to 100 (0 no effect, 100 complete control)
Summary of the method: as §3

[27] = system: rice; assay: Test D flooded paddy test; type: in vivo, Oryza sativa; conditions: 250 g ai/ha, applied to paddy water, visual rating after 13 to 14 days, scale 0 to 100 (0 no effect, 100 complete control)
Summary of the method: as §3

[28] = system: sedge, umbrella; assay: Test D flooded paddy test; type: in vivo, Cyperus difformis; conditions: 250 g ai/ha, applied to paddy water, visual rating after 13 to 14 days, scale 0 to 100 (0 no effect, 100 complete control)
Summary of the method: as §3

[29] = 500 g ai/ha, preemergence, 0 to 100 scale (0 no effect, 100 complete control)
[30] = Preemergence, 125 g ai/ha, 0 to 100 scale, 0 no effect, 100 complete control

Cc1ccc(-n2cncn2)cc1C(=O)N1CC(C(F)(F)F)Oc2c(Cl)cccc21 (stereo not shown) [Compound 346]
Barnyardgrass plant response rating [1, 29]: 100
Plant response rating, Barnyardgrass [1, 30]: 70
Blackgrass plant response rating [2, 29]: 90
Plant response rating, Blackgrass [2, 30]: 80
Corn plant response rating [3, 29]: 90
Plant response rating, Corn [3, 30]: 0
Foxtail, Giant plant response rating [4, 29]: 100
Plant response rating, Foxtail, Giant [4, 30]: 100
Kochia plant response rating [5, 29]: 80
Plant response rating, Kochia [5, 30]: 10
Oat, Wild plant response rating [6, 29]: 40
Plant response rating, Oat, Wild [6, 30]: 0
Pigweed, Palmer plant response rating [7, 29]: 100
Plant response rating, Pigweed, Palmer [7, 30]: 100
Ragweed plant response rating [8, 29]: 10
Plant response rating, Ragweed [8, 30]: 0
Ryegrass, Italian plant response rating [9, 29]: 90
Plant response rating, Ryegrass, Italian [9, 30]: 80
Soybean plant response rating [10, 29]: 100
Plant response rating, Soybean [10, 30]: 30
Wheat plant response rating [11, 29]: 80
Plant response rating, Wheat [11, 30]: 0
Plant response rating, Barnyardgrass ([12]; 500 g ai/ha, postemergence): 70
Plant response rating, Barnyardgrass ([12]; Postemergence, 125 g ai/ha): 40
Plant response rating, Blackgrass ([13]; 500 g ai/ha, postemergence): 90
Plant response rating, Blackgrass ([13]; Postemergence, 125 g ai/ha): 80
Plant response rating, Corn ([14]; 500 g ai/ha, postemergence): 90
Plant response rating, Corn ([14]; Postemergence, 125 g ai/ha): 10
Plant response rating, Foxtail, Giant ([15]; 500 g ai/ha, postemergence): 90
Plant response rating, Foxtail, Giant ([15]; Postemergence, 125 g ai/ha): 90
Plant response rating, Kochia ([16]; 500 g ai/ha, postemergence): 80
Plant response rating, Kochia ([16]; Postemergence, 125 g ai/ha): 70
Plant response rating, Oat, Wild ([17]; 500 g ai/ha, postemergence): 60
Plant response rating, Oat, Wild ([17]; Postemergence, 125 g ai/ha): 0
Plant response rating, Pigweed, Palmer ([18]; 500 g ai/ha, postemergence): 70
Plant response rating, Pigweed, Palmer ([18]; Postemergence, 125 g ai/ha): 40
Plant response rating, Ragweed ([19]; 500 g ai/ha, postemergence): 40
Plant response rating, Ragweed ([19]; Postemergence, 125 g ai/ha): 30
Plant response rating, Ryegrass, Italian ([20]; 500 g ai/ha, postemergence): 80
Plant response rating, Ryegrass, Italian ([20]; Postemergence, 125 g ai/ha): 70
Plant response rating, Soybean ([21]; 500 g ai/ha, postemergence): 100
Plant response rating, Soybean ([21]; Postemergence, 125 g ai/ha): 90
Plant response rating, Wheat ([22]; 500 g ai/ha, postemergence): 70
Plant response rating, Wheat ([22]; Postemergence, 125 g ai/ha): 20
Plant response rating, Galium ([23]; 500 g ai/ha, postemergence): 100
Plant response rating, Galium ([23]; Postemergence, 125 g ai/ha): 100
Plant response rating, Horseweed ([24]; 500 g ai/ha, postemergence): 0
Plant response rating, Horseweed ([24]; Postemergence, 125 g ai/ha): 0
Plant response rating, Barnyardgrass (Flood) [25]: 0
Plant response rating, Ducksalad (Flood) [26]: 65
Plant response rating, Rice (Flood) [27]: 0
Plant response rating, Sedge, Umbrella (Flood) [28]: 85
